According to patent US5863952A, “Enantiomers of 1-(3,4-dichlorobenzyl)-2-methylaminoindane” (SmithKline Beecham plc, priority 1995, dated 1999):

Columns and labels:
[1] = system: histological damage in the cerebral cortex after mid-cerebral artery occlusion; test: Mouse MCAO model; format: in vivo, CD1 mice; details: 10 mg.kg-1 i.p. 30 minutes post-ischaemia then 10 mg.kg-1 b.i.d. for 3 days, histology on 4th day
Method: Male CD1 mice weighing 25-29 g were anaesthetised with tribromoethanol, placed on a heat-pad and maintained at 37° C. The mid-cerebral artery was cauterised and divided via the intra-cranial route. On completion of surgery the mice were placed in an incubator for 2 hours to maintain body temperature during the acute recovery phase. On the 4th day the mice were euthanased and the brains removed for histological analysis. The dosing protocol in these experiments was 10 mg.kg^-1 30 minutes post-ischaemia then 10 mg.kg^-1 b.i.d. for 3 days. Injections were given via the i.p. route, and the vehicle was distilled water.

[2] = system: voltage gated Ca2+ channel currents (remaining, predominantly N type, calcium current) in superior cervical ganglion neurons; test: Ca2+ current measurement, whole cell recording in cultured superior cervical ganglion neurons; format: cell-based; details: 5 μM drug coapplied with 10 μM Nimodipine for three minutes; 10 mM Ba2+ as charge carrier; holding potential -80 mV, test potential 0 or +10 mV; Hydrochloride
Method: Lett., 77, 55-60 (1987). Cells were plated onto laminin coated plastic tissue culture dishes and incubated at 37° C. until just prior to recording. Electrophysiological recordings were performed from 2 to 9 days after dissociation. The pipette (internal solution) contained in mM: CsCl, 130; HEPES, 10; EGTA, 10; MgCl2, 4; ATP, 2; buffered to pH 7.2 with CsOH. Cells were bathed in a normal Tyrodes solution before establishment of whole cell recording when the bathing solution was changed to one allowing isolation of Ca^2+ currents. The external solution for recording Ca^2+ channel currents contained in mM: BaCl2, 10; TEA-Cl, 130; glucose, 10; HEPES, 10; MgCl2, 1; buffered to pH 7.3 with TEA-OH. […] Whole cell currents were recorded using List EPC-7 amplifiers and stored, digitised for later analysis using PC based software similar to that described previously (Benham & Tsien, Journal of Physiology (1988), 404, 767-784). Peak voltage gated Ca^2+ channel currents of up to 10 nA were recorded using 10 mM Ba^2+ as charge carrier. […] The rundown rate was measured in control conditions and extrapolated through the time of drug application to derive a rundown corrected control value. Once a constant calcium current had been recorded for 4 successive pulses (1 minute) 10 μM Nimodipine, a dihydropyridine, was applied to the cell to block L type calcium current. […]

[3] = system: histological damage in the CA1 region of the hippocampus after carotid artery occlusion; test: Gerbil BCAO model; format: in vivo, Mongolian gerbils; details: 6 min carotid occlusion, 15 mg.kg-1 i.p. 30 minutes post-ischaemia then 5 mg.kg-1 b.i.d. for 3 days, histology on 5th day
Method: Male Mongolian gerbils weighing between 60-80 g were anaesthetised with halothane, placed on a heated mat and the carotid arteries occluded for 6 min. After reperfusion, the animals were sutured and placed in an incubator for 2 hours to maintain body temperature during the acute recovery phase. The animals were then caged separately and on the 5th day after the day of surgery they were euthanased and the brains removed for histological analysis. The dosing protocol in these experiments was 15 mg.kg^-1 30 minutes post-ischaemia then 5 mg.kg^-1 b.i.d. for 3 days. Injections were given via the i.p. route, and the vehicle was distilled water.

| SMILES | attenuation of histological damage in the cerebral cortex compared with ischaemic vehicle-treated animals [1] | inhibition of plateau Ca2+ current [2] | attenuation of histological damage in the CA1 region of the hippocampus compared with ischaemic vehicle-treated animals [3] |
| --- | --- | --- | --- |
| CN[C@H]1Cc2ccccc2[C@H]1Cc1ccc(Cl)c(Cl)c1.Cl (single isomer, unassigned) [Example 1, (+)cis-1-(3,4-Dichlorobenzyl)-2-methylaminoindane Hydrochloride] | significant attenuation of the histological damage | 95% | significant attenuation of the histological damage |
| CN[C@H]1Cc2ccccc2[C@H]1Cc1ccc(Cl)c(Cl)c1.Cl (single isomer, unassigned) [Example 2, (-)cis-1-(3,4-Dichlorobenzyl)-2-methylaminoindane Hydrochloride] | significant attenuation of the histological damage | 99% | significant attenuation of the histological damage |
